Holding throughout (format): functional, cell-based
For assay [1], the system named is KB. Kind of assay: Cytotoxicity against human KB cells after 2 days by sulforhodamine B assay. To be noted: 48 h. For orientation: In SRB staining, fixed cells bind dye roughly in proportion to their protein.
The test system of assay [2] is KB. Kind of assay: Cytotoxicity against multidrug-resistant human KB-VCR cells after 2 days by sulforhodamine B assay. To be noted: 48 h.
A further assay concerns A549. The assay is described as follows: Cytotoxicity against human A549 cells after 2 days by sulforhodamine B assay. To be noted: A549, 48 h.

Converted amounts (≈) assume the structure as drawn.

Turning to `COc1ccc(/C=C/C(C)=O)cc1OC`, the IC50 came out at 8.6 µg/mL (≈ 41.7 µM) with KB [1], 7.8 µg/mL (≈ 37.8 µM) in the assay on KB [2] and 8 µg/mL (≈ 38.8 µM) in the assay with A549.
In the same order, the values of `COc1ccc(/C=C/C(C)=O)cc1O` are 10 µg/mL (≈ 52 µM), 8.2 µg/mL (≈ 42.7 µM) and > 10 µg/mL.
For `CC(=O)/C=C/c1cccc(F)c1O`, the IC50 with KB [1] is 2.1 µg/mL (≈ 11.7 µM); with KB [2], 3 µg/mL (≈ 16.7 µM); in the assay with A549 it was 3 µg/mL (≈ 16.7 µM).
For the compound `COc1ccc(/C=C/C(=O)c2ccccc2)cc1O`, the IC50 with KB [1] was 1 µg/mL (≈ 3.93 µM); in the assay with KB [2], 1 µg/mL (≈ 3.93 µM); in the assay with A549, 3.5 µg/mL (≈ 13.8 µM).
For `CCOc1cccc(/C=C/C(C)=O)c1O`, the IC50 with KB [1] turned out to be 2 µg/mL (≈ 9.7 µM); in the assay with KB [2], 1.9 µg/mL (≈ 9.21 µM); with A549, 2.3 µg/mL (≈ 11.2 µM).
In the same order, the values of `COc1ccc(/C=C/C(C)=O)c(O)c1` are 3.8 µg/mL (≈ 19.8 µM), 4 µg/mL (≈ 20.8 µM) and 3.5 µg/mL (≈ 18.2 µM).
In the same order, the values of `COc1cccc(/C=C/C(=O)c2ccccc2)c1O` are 2.4 µg/mL (≈ 9.44 µM), 1.3 µg/mL (≈ 5.11 µM) and 0.6 µg/mL (≈ 2.36 µM).
In the same order, the values of `COc1ccc(/C=C/C(C)=O)cc1F` are 4.3 µg/mL (≈ 22.1 µM), 5 µg/mL (≈ 25.7 µM) and 5.5 µg/mL (≈ 28.3 µM).
In the case of `C=CCOc1ccc(/C=C/C)cc1OC`, the IC50 in the assay with KB [1] and in the assay on KB [2] was > 10 µg/mL in each case.
Turning to `C/C=C/c1ccc(OCC=C(C)C)c(OC)c1`, the IC50 with KB [1] and in the assay with KB [2] was > 10 µg/mL in each case.
Consider `C=CCOc1ccc(/C=C/C(C)=O)cc1OC`, for which the IC50 was determined as 6.8 µg/mL (≈ 29.3 µM) in the assay on KB [1], 5 µg/mL (≈ 21.5 µM) in the assay with KB [2] and 5.8 µg/mL (≈ 25 µM) in the assay on A549.
Take `C/C=C/c1ccc(OCCC(C)C)c(OC)c1`: the IC50 in the assay with KB [1] and in the assay on KB [2] was > 10 µg/mL each time.
As for `C/C=C/c1ccc(OCCC)c(OC)c1`, the IC50 in the assay on KB [1] and in the assay with KB [2] was > 10 µg/mL in each case.
For the compound `C/C=C/COc1ccc(/C=C/C)cc1OC`, the IC50 with KB [1] and in the assay on KB [2] was > 10 µg/mL each time.
On to `COc1cc(/C=C/C(C)=O)ccc1OCC=C(C)C`, for which the values for the IC50 in the assay with KB [1], with KB [2] and with A549 were 5.7 µg/mL (≈ 21.9 µM), 3.5 µg/mL (≈ 13.4 µM) and 3.8 µg/mL (≈ 14.6 µM), respectively.
On to `C/C=C/COc1ccc(/C=C/C(C)=O)cc1OC`, for which the IC50 is 4.8 µg/mL (≈ 19.5 µM) with KB [1], 3.4 µg/mL (≈ 13.8 µM) with KB [2] and 6.8 µg/mL (≈ 27.6 µM) in the assay on A549.
Regarding `COc1cc(/C=C/C(C)=O)ccc1OC/C=C(\C)CCC=C(C)C`, the IC50 is 2.2 µg/mL (≈ 6.7 µM) with KB [1], 3.3 µg/mL (≈ 10 µM) in the assay with KB [2] and 3.4 µg/mL (≈ 10.4 µM) with A549.
Taken in the same sequence, the figures for `CCOc1ccc(/C=C/C(C)=O)cc1OC` were 5.5 µg/mL (≈ 25 µM), 8 µg/mL (≈ 36.3 µM) and > 10 µg/mL.
For `CCOc1cc(/C=C/C(C)=O)ccc1O`, the half-maximal inhibitory concentration (IC50) in the assay with KB [1] worked out at 7.7 µg/mL (≈ 37.3 µM); in the assay on KB [2] it was 7.8 µg/mL (≈ 37.8 µM); with A549 it was 8.5 µg/mL (≈ 41.2 µM).
As to `COc1cc(/C=C/C(=O)c2ccccc2)ccc1O`, the IC50 is 3.5 µg/mL (≈ 13.8 µM) in the assay on KB [1], 1.9 µg/mL (≈ 7.47 µM) with KB [2] and 2.3 µg/mL (≈ 9.04 µM) with A549.
Taken in the same sequence, the figures for `CCCOc1ccc(/C=C/C(C)=O)cc1OC` were 6.5 µg/mL (≈ 27.7 µM), 4.2 µg/mL (≈ 17.9 µM) and 5.8 µg/mL (≈ 24.8 µM).
In the same order, the values of `COc1cc(/C=C/C(C)=O)ccc1OCCC(C)C` are 3.6 µg/mL (≈ 13.7 µM), 3.2 µg/mL (≈ 12.2 µM) and 7.2 µg/mL (≈ 27.4 µM).
Taken in the same sequence, the figures for `COc1ccc(/C=C/C(=O)c2ccccc2)c(O)c1` were 2 µg/mL (≈ 7.87 µM), 2 µg/mL (≈ 7.87 µM) and 3.8 µg/mL (≈ 14.9 µM).
In the case of `COc1cc(/C=C/C(C)=O)ccc1OC/C=C(\C)CC/C=C(\C)CCC=C(C)C`, the half-maximal inhibitory concentration (IC50) was 6.5 µg/mL (≈ 16.4 µM) in the assay on KB [1], 7.4 µg/mL (≈ 18.7 µM) with KB [2] and 7.4 µg/mL (≈ 18.7 µM) with A549.
For `C/C=C/c1ccc(OC/C=C(\C)CC/C=C(\C)CCC=C(C)C)c(OC)c1`, the IC50 in the assay on KB [1] and with KB [2] was > 10 µg/mL in each case.
As to `COc1cccc(/C=C/C(C)=O)c1O`, the IC50 in the assay on KB [1] stood at 3.8 µg/mL (≈ 19.8 µM); in the assay on KB [2], 2 µg/mL (≈ 10.4 µM); in the assay with A549 it was 2.5 µg/mL (≈ 13 µM).
In the same order, the values of `COc1cc(/C=C/C(=O)CC(=O)/C=C/c2ccc(O)c(OC)c2)ccc1O` [CURCUMIN] are 5.5 µg/mL (≈ 14.9 µM), 3.1 µg/mL (≈ 8.42 µM) and 5.2 µg/mL (≈ 14.1 µM).
As to `COc1cc(/C=C/C(C)=O)ccc1O` [DEHYDROZINGERONE], the IC50 with KB [1], in the assay with KB [2] and in the assay with A549 was > 10 µg/mL in each case.
Turning to `COc1cccc2c1C(=O)c1c(O)c3c(c(O)c1C2=O)C[C@@](O)(C(=O)CO)C[C@@H]3O[C@H]1C[C@H](N)[C@H](O)[C@H](C)O1` [DOXORUBICIN], the IC50 amounted to 0.1 µg/mL (≈ 0.184 µM) in the assay with KB [1], 2.7 µg/mL (≈ 4.97 µM) with KB [2] and 0.1 µg/mL (≈ 0.184 µM) in the assay with A549.
Take `C/C=C/c1ccc(OC)c(OC)c1` [METHYLISOEUGENOL]: the IC50 in the assay with KB [1] and with KB [2] was > 10 µg/mL each time.

The IC50 is the concentration needed to halve the response being measured. The low end stands for greater potency in that assay, the high end for weaker potency in that assay.
